In patent publication US11179348B2, “Combination comprising pterostilbene for the treatment of cancer” (FUNDACIÓN UNIVERSIDAD CATÓLICA DE VALENCIA SAN VICENTE …, priority 2015, dated 2021):
Read-outs that look alike come from different tables or passages of the source.

Legend:
[1] = tested on: MCF-7 cells; test: GSH levels and glutathione- and oxidative stress-related enzyme activities in MCF-7 cells growing in vivo; design: species or system human; settings: MCF-7, in vivo Pter, day 28
Experimental: To measure enzyme activity, isolated tumor cells were homogenized in 0.1 M phosphate buffer (pH 7.2) at 4° C. GCL and GSS activities were measured as described previously (Obrador, E. et al. Hepatology 35, 74-81 (2002)). GPX (selenium dependent) activity was measured as described by Flohé and Gunzler (Flohe, L. & Gunzler, W. A. Methods Enzymol 105, 114-121 (1984)) using H2O2 as a substrate. GSR activity was determined as described by Akerboom and Sies (Akerboom, T. P. et al, Bull Eur Physiopathol Respir 17 Suppl, 221-227 (1981)). GGT activity was measured as described previously (Obrador, E. et al. Hepatology 35, 74-81 (2002)). GST activity was measured using an assay kit from Sigma. TXNRD activity, defined by the concentration of sodium-lipoate (disulfide) reduced to dehydrolipoate (dithiol) per milligram protein, was measured as previously described (Javvadi, P. et al. Cancer Res 70, 1941-1950 (2010)). SOD activity was measured as described by Flohé and Otting (Flohe, L. & Otting, F. Methods Enzymol 105, 93-104 (1984).) using 2 mM cyanide in the assay medium to distinguish mangano-type enzyme (SOD2) from the cuprozinc type (SOD1). CAT activity was analyzed as described by Aebi (Aebi, H. Methods Enzymol 105, 121-126 (1984)). NOX activity was measured by chemiluminescence following the methodology of Wind et al. (Wind, S. et al. Comparative pharmacology of chemically distinct NADPH oxidase inhibitors. Br J Pharmacol 161, 885-898 (2010)). Protein concentration was determined with the Pierce BCA protein assay (Fisher Scientific, Waltham, Mass.).
GSH, GSSG, NADP^+ and NADPH Determination.
GSH and GSSG were determined, following procedures previously described (Obrador, E. et al. PLoS One 9, e96466 (2014)), by LC/MS using the same equipment described above for pterostilbene determination. Cell processing was performed according to published methodology, where rapid N-ethylmaleimide derivatization was used to prevent GSH auto-oxidation (Asensi, M. et al. Anal Biochem 217, 323-328 (1994)). NADP^+ and NADPH were quantitated using an assay kit from Sigma (St. Louis, Mo.).
Isolation of Tumor Cells from Mouse Xenografts Using Enzymatic Digestion and a double Ficoll gradient.
To maximize the amount of isolated cells, avoiding the use of RFP-transfected cells and subsequent laser microdissection, an alternative methodology was set up. To maximize cell yield and viability the following combination of enzymes was used: collagenase III (200 U/ml; Sigma-Aldrich), DNase I (200 U/ml; Sigma-Aldrich) and trypsin (5 mg/ml; Invitrogen), and a non-enzymatic dissociation buffer (NEDB, Invitrogen). Briefly, mice were killed, and tumors were removed (avoiding skin, muscle and fat) into cold culture media and processed immediately. The tumors were minced into 1-3 mm fragments, which were then incubated with the dissociation solution (see above) for 30 min at 37° C. The tumor fragments were mixed up and down every 10 min using a […] micropipette with a tip cut to a diameter adapted to tissue fragment size. After each incubation period, the fragments were filtered through a […] nylon mesh cell strainer (BD Biosciences, San Diego, Calif., USA). The released cells were centrifuged at 1200 r.p.m. for 2 min and stored in cold CO2-independent medium with 30% FCS at […]. Fresh dissociation solution was added to the remaining tissue fragments for 30 min. Dissociation was stopped when no additional cells were released. The fragments were pushed through a sieve and all cells from all incubation periods were pooled and counted.
The dissociated cells were layered onto a double Ficoll gradient (Histopaque; Sigma-Aldrich; densities 1.077 and 1.119) and spun at 700 g for 30 min at room temperature. Cells removed from both interfaces were pooled and washed two times in CO2-independent medium and stored at 4° C. Debris and red blood cell elimination was improved with the dual-density gradient. […]

[2] = Pter and metabolite levels in plasma, tumor, brain and pituitary after i.v. administration (LC-MS/MS); assay type: in vivo, mice; settings: for highest concentration in plasma / highest concentration in tumors: 5 min after i.v. 30 mg Pter/kg
Experimental: Determination of Pter and its Metabolites by High-Pressure Liquid Chromatography and Mass Spectrometry (LC-MS/MS).
LC-MS/MS was carried out, as previously described (Ferrer, P. et al. Neoplasia 7, 37-47 (2005); Azzolini, M. et al. Mol Nutr Food Res 58, 2122-2132 (2014)) in detail, using a TSQ Vantage™ Triple Quadrupole Mass Spectrometer (Thermo Scientific, Waltham, Mass.) equipped with a Shimadzu LC-10ADvp. pump and a SLC-10Avp. controller system with a SIL-10ADvp. autoinjector.

[3] = tested on: CRH mRNA; test: CRH expression in the hypothalamic PVN (in situ hybridization); assay type: in vivo; settings: melanoma-bearing mice; significant in MeWo- and MelJuso-bearing mice
Experimental: CRH Expression in the Brain (In Situ Hybridization).
Sections of 10 μm of the PVN were cut according to a mouse brain atlas (Allen Institute for brain science, http://www.brain-map.org) on a cryostat, mounted on polysine microscope slides (Menzel-Glazer, Braunschweig, Germany), and stored at −80° C. for 24 h. Then sections were fixed in 4% paraformaldehyde, further permeabilized by proteinase K treatment, acetylated twice with 0.25% acetic anhydride in 0.1 M triethanolamine, and dehydrated in a graded ethanol series. Hybridization, carried out as described before (Lachize, S. et al. Proc Natl Acad Sci USA 106, 8038-8042 (2009)), was performed using specific 48-mer, ^35S-labeled oligonucleotide probes for murine CRH mRNA (5′-GGCCCGCGGCGCTCCAGAGACGGATCCCCTGCTCAGCAGGGCCCTGCA-3′) (SEQ ID NO: 1). Hybridized slices were exposed to BioMax MR film (Kodak, Rochester, N.Y.). The mRNA expression of CRH in the PVN was quantified as gray density minus background in digitized images using the NIH ImageJ 1.6 program (http://rsb.info.nih.gov/ij). Bilateral measures were taken from two to four PVN sections for each mouse, which were pooled to provide individual means per mouse. For tissue background, the optical density of a nonhybridized region outside the PVN was measured.

SMILES: COc1cc(/C=C/c2ccc(O)cc2)cc(OC)c1 [Pter, trans-3,5-dimethoxy-4′-hydroxystilbene]
- CAT [1]: 0.5 ± 0.2 mU/10^6 cells
- GCL [1]: 166 ± 34 mU/10^6 cells
- GSH [1]: 30.6 ± 4.2 nmol/10^6 cells
- GSS [1]: 25.2 ± 5.6 mU/10^6 cells
- GSSG [1]: 0.3 ± 0.1 nmol/10^6 cells
- SOD1 [1]: 1.0 ± 0.08 U/10^6 cells
- SOD2 [1]: 0.12 ± 0.05 U/10^6 cells
- approx. mean level in the hypophysis ([2]; 10-30 min after i.v. 30 mg/kg): ~15 µM
- level in whole brain ([2]; 60 min after i.v. 30 mg/kg): approx. 1 nmol/g
- level in whole brain ([2]; 120 min after i.v. 30 mg/kg): non-detectable levels
- highest concentration in plasma ([2]; A2058-bearing mice): 112 ± 17 µM
- highest concentration in tumors ([2]; A2058 tumors): 28 ± 7 µM
- highest concentration in tumors ([2]; MeWo tumors): 33 ± 7 µM
- highest concentration in plasma ([2]; MeWo-bearing mice): 116 ± 23 µM
- highest concentration in tumors ([2]; MelJuso tumors): 25 ± 7 µM
- highest concentration in plasma ([2]; MelJuso-bearing mice): 98 ± 13 µM
- levels in plasma after the last time point ([2]; after 480 min): undetectable
- levels in the hypophysis compared with the whole brain ([2]; after i.v. 30 mg/kg): significantly higher
- lowest concentration in plasma ([2]; at 240-480 min after i.v. 30 mg Pter/kg): approx. 1 μM
- half-life ([2]; female, nu/nu nude, mouse, melanoma tumor, iv, 30 mg/kg, melanoma tumors, 30 mg Pter/kg i.v., read-out: half-life in the melanoma tumors): 36 to 40 min
- half-life ([2]; female, nu/nu nude, mouse, plasma, iv, 30 mg/kg, B16-F1-bearing mice, Pter 30 mg/kg i.v., read-out: half-life in circulating plasma): 61.2 min
- half-life ([2]; female, nu/nu nude, mouse, plasma, iv, 30 mg/kg, melanoma-bearing mice, 30 mg Pter/kg i.v., read-out: half-life in circulating plasma): 70 to 73 min
- half-life ([2]; female, nu/nu nude, mouse, tumor (B16-F1), iv, 30 mg/kg, B16-F1 tumors, Pter 30 mg/kg i.v., read-out: half-life in the tumors): 29.3 min
- concentration at 180 min ([2]; female, nu/nu nude, mouse, tumor, iv, 30 mg/kg, at 180 min after i.v. 30 mg Pter/kg, read-out: lowest concentration in tumors): ~1 µM
- approximate mean concentration within the tumor ([2]; first hour after i.v. 30 mg Pter/kg): ~15 µM
- main Pter-derived metabolite generated in vivo (plasma) ([2]; i.v. 30 mg Pter/kg): pterostilbene-4′-sulfate (Pter-S)
- CRH mRNA expression in the hypothalamic PVN [3]: further decrease
